Set-up: species or system White New Zealand male rabbits
Details: rabbit, in vivo, sc, 18 mg/kg
Description: The study was performed in 6 White New Zealand male rabbits (body weight: 3.63±0.17 kg; min-max 3.47-3.88 kg) and included MS1 and MS2 loaded at 40 mg/mL of teicoplanin (Sigma, T-0578).
Briefly, teicoplanin was reconstituted in water for injection at the concentration of […] (100 mL). Sterile dry beads (≈6 mL in 5% glucose) were hydrated/loaded in the teicoplanin solution (20 mL) with continuous agitation on rotating wheel (≈30 rpm). After 20 min, the supernatant was retrieved and kept for drug quantification. Microspheres (MS1 and MS2) were then washed in water, and kept on shell until the time of administration. At the time of injection, MS were suspended in saline and the appropriate volume of bead (≈4 mL) suspension was sampled for injection at a ratio of 2:1 MS/saline (Table 7). Each microsphere was administered once subcutaneously at the same dose of drug at two injection sites to 2 animals. Teicoplanin control (Sigma, T-0578) was administered once in one animal and repeated daily in another animal. […]
A vascular access was gained in the auricular artery for blood sampling and in auricular vein for perfusion. […] The lowest limit of quantification of the method (LOQ) is 2.0 mg/L. The results of plasmatic assay of teicoplanin are reported in table 8 and in FIG. 7.

## teicoplanin [Injectable teicoplanin]
  Teicoplanin serum concentration: <2.0 mg/L

— patent US20230241158A1, “Hydrophilic Degradable Microspheres for Local Delivering of Glycopeptide Antibiotics and Polycationic Peptide Antibiotics” (priority 2020, published 2023)
